Laboratory results taken from patent US20250268903A1, “RXFP1 AGONISTS” (BRISTOL-MYERS SQUIBB COMPANY, priority 2021, published 2025).

biological target: T1, human RXFP1 (Homo sapiens, UniProt Q9HBX9); assay: hRXFP1 HEK293 cAMP assay (HTRF); format: cell-based; conditions: HEK293 cells stably expressing human RXFP1, 30 min at room temperature
T1 construct: expressed in transfected cells
T1 sequence (Q9HBX9 1-757): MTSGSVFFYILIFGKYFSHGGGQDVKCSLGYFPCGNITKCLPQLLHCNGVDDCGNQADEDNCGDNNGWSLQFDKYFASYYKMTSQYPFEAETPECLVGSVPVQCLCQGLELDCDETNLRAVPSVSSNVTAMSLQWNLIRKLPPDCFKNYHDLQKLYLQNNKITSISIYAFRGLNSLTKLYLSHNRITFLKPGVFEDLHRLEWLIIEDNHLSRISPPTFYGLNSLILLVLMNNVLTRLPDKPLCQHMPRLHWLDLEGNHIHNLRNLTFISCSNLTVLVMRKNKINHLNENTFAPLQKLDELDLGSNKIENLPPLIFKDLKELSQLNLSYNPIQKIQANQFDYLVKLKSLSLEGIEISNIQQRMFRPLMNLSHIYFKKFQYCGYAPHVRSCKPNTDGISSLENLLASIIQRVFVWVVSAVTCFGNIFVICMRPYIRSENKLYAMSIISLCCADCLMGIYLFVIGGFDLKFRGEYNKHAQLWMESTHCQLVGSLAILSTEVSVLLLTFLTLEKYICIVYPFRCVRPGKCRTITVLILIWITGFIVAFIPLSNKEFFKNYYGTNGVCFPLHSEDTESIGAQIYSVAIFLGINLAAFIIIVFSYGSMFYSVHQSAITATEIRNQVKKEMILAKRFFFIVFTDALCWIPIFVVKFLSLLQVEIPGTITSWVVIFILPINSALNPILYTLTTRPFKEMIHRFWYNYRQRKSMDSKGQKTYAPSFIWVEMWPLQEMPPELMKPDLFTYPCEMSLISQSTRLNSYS
Procedure, shortened: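 HEK293 cells stably expressing human RXFP1 were suspended in HBSS (Ca/Mg) with 20 mM HEPES, 0.05% BSA and 0.5 mM IBMX, then treated with compounds (0.010 nM–50 μM, 2% DMSO final) for 30 min at room temperature. Intracellular cAMP was measured by HTRF, and potency was derived from 4-parameter logistic fits.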

Row | Structure (SMILES) | EC50 [nM]
1 | COc1ccc(C(=O)N2CCC(S(C)(=O)=O)C2)cc1C(=O)N[C@H]1[C@@H](C(=O)Nc2ccc(F)c(C(F)(F)F)c2)[C@H]2CC[C@@H]1/C2=C\C1CC1 (stereo partly drawn) [Example 257, (1R,2S,3R,4R,7Z)-7-(cyclopropylmethyl-idene)-N-[4-fluoro-3-(trifluoromethyl)phenyl]-3-[5-(3-methanesulfonyl-pyrrolidine-1-carbonyl)-2-methoxybenzamido] bicyclo[2.2.1]heptane-2-carboxamide] | 90.8
2 | COc1ccc(C(=O)N2C3CCC2COC3)cc1C(=O)N[C@H]1[C@@H](C(=O)Nc2ccc(F)c(C(F)(F)F)c2)[C@H]2CC[C@@H]1/C2=C\C1CC1 [Example 258, (1R,2S,3R, 4R,7Z)-7-(cyclopropyl-methylidene)-N-[4-fluoro-3-(trifluoromethyl)phenyl]-3-(2-methoxy-5-{3-oxa-8-azabicyclo [3.2.1]octane-8-carbonyl}benzamido) bicyclo[2.2.1] heptane-2-carboxamide] | 32.9
3 | COc1ccc(C(=O)N2CC3CCC(C2)O3)cc1C(=O)N[C@H]1[C@@H](C(=O)Nc2ccc(F)c(C(F)(F)F)c2)[C@H]2CC[C@@H]1/C2=C\C1CC1 [Example 259, (1R,2S,3R,4R,7Z)-7-(cyclopropylmethylidene)-N-[4-fluoro-3-(trifluoromethyl)phenyl]-3-(2-methoxy-5-{8-oxa-3-azabicyclo[3.2.1]octane-3-carbonyl}benzamido) bicyclo[2.2.1] heptane-2-carboxamide] | 367
4 | COc1ccc(C(C)(C)CCO)cc1C(=O)N[C@H]1[C@@H](C(=O)Nc2ccc(F)c(C(F)(F)F)c2)[C@H]2CC[C@@H]1/C2=C\C1CC1 [Example 269, (1R,2S,3R,4R,7Z)-7-(cyclopropyl-methylidene)-N-[4-fluoro-3-(trifluoromethyl)phenyl]-3-[5-(4-hydroxy-2-methylbutan-2-yl)-2-methoxybenzamido] bicyclo[2.2.1] heptane-2-carboxamide] | 244
5 | COc1ccc(CCCO)cc1C(=O)N[C@H]1[C@@H](C(=O)NCC(C)(C)C)[C@H]2CC[C@@H]1/C2=C\C1CC1 [Example 270, (1R,2S,3R,4R,7Z)-7-(cyclopropylmethyl-idene)-N-(2,2-dimethylpropyl)-3-[5-(3-hydroxypropyl)-2-methoxybenzamido] bicyclo[2.2.1]heptane-2-carboxamide] | 685
6 | COc1ccc(CCC(C)(C)O)cc1C(=O)N[C@H]1[C@@H](C(=O)NCC(C)(C)C)[C@H]2CC[C@@H]1/C2=C\C1CC1 [Example 271, (1R,2S,3R,4R,7Z)-7-(cyclopropylmethyl-idene)-N-(2,2-dimethylpropyl)-3-[5-(3-hydroxy-3-methylbutyl)-2-methoxybenzamido] bicyclo[2.2.1]heptane-2-carboxamide] | 264
7 | COc1ccc(C(C)(C)CCO)cc1C(=O)N[C@H]1[C@@H](C(=O)Nc2ccc(F)c(C(F)(F)F)c2)[C@H]2CC[C@@H]1/C2=C\C(F)(F)F [Example 272, (1R,2S,3R,4R,7Z)-N-[4-fluoro-3-(trifluoromethyl)phenyl]-3-[5-(4-hydroxy-2-methylbutan-2-yl)-2-methoxybenzamido]-7-(2,2,2-trifluoroethylidene) bicyclo[2.2.1]heptane-2-carboxamide] | 422
8 | COc1cc2c(cc1C(=O)N[C@H]1[C@@H](C(=O)Nc3ccc(F)c(C(F)(F)F)c3)[C@H]3CC[C@@H]1/C3=C\C(F)(F)F)CCC2 [Example 273, [(1R,2R,3S,4R,7Z)-3-{[4-fluoro~3-(trifluoromethyl)phenyl]carbamoyl}-7-(2,2,2-trifluoroethylidene)bicyclo[2.2.1]heptan-2-yl]-6-methoxy-2,3-dihydro-IH-indene-5-carboxamide] | 3440
9 | COc1ccc(/C(=C/CO)C(F)(F)F)cc1C(=O)N[C@H]1[C@@H](C(=O)Nc2ccc(F)c(C(F)(F)F)c2)[C@H]2CC[C@@H]1/C2=C\C1CC1 [Example 282, (1R,2S,3R,4R,Z)-7-(cyclopropylmethylene)-N-(4-fluoro-3-(trifluoromethyl)phenyl)-3-(2-methoxy-5-((Z)-1,1,1-trifluoro-4-hydroxybut-2-en-2-yl)benzamido) bicyclo[2.2.1]heptane-2-carboxamide] | 281
10 | COc1ccc(COCC2CC(F)(F)C2)cc1C(=O)N[C@H]1[C@@H](C(=O)Nc2ccc(F)c(C(F)(F)F)c2)[C@H]2CC[C@@H]1/C2=C\C1CC1 [Example 283, (1R,2S,3R,4R,7Z)-7-(cyclopropyl-methylidene)-3-(5-{[(3,3-difluorocyclobutyl)methoxy]methyl}-2-methoxybenzamido)-N-[4-fluoro-3-(trifluoromethyl)phenyl] bicyclo[2.2.1] heptane-2-carboxamide] | 110

The remaining compounds from weak to strong by EC50, led by results:

Row | EC50 [nM] | Structure (SMILES)
11 | 73.4 | COc1ccc(C(=O)N2CCN(CC(F)F)CC2)cc1C(=O)N[C@H]1[C@@H](C(=O)Nc2ccc(F)c(C(F)(F)F)c2)[C@H]2CC[C@@H]1/C2=C\C1CC1 [Example 255, (1R,2S,3R,4R,7Z)-7-(cyclopropyl-methylidene)-3-{5-[4-(2,2-difluoroethyl)piperazine-1-carbonyl]-2-methoxybenzamido}-N-[4-fluoro-3-heptane-2-(trifluoromethyl)phenyl]bicyclo [2.2.1] carboxamide]
12 | 41.8 | COc1ccc(C23CCC(C(C)(C)O)(CC2)CC3)cc1C(=O)N[C@H]1[C@@H](C(=O)Nc2ccc(F)c(C(F)(F)F)c2)[C@H]2CC[C@@H]1/C2=C\C1CC1 [Example 275, (1R,2S,3R,4R,7Z)-7-(cyclopropylmethyl-idene)-N-[4-fluoro-3-(trifluoromethyl)phenyl]-3-{5-[4-(2-hydroxypropan-2-yl)bicyclo[2.2.2]octan-1-yl]-2-methoxybenzamido} bicyclo[2.2.1]heptane-2-carboxamide]
13 | 32 | COc1ccc(C[C@H]2C[C@H](O)C2)cc1C(=O)N[C@H]1[C@@H](C(=O)Nc2ccc(F)c(C(F)(F)F)c2)[C@H]2CC[C@@H]1/C2=C\C(F)(F)F [Example 278, (1R,2S,3R,4R,7Z)-N-[4-fluoro-3-(trifluoromethyl)phenyl]-3-(2-methoxy-5-{[(1r,3s)-3-hydroxycyclobutyl]methyl}benzamido)-7-(2,2,2-trifluoroethylidene) bicyclo[2.2.1]heptane-2-carboxamide]
14 | 18.3 | COc1ccc(C[C@H]2C[C@H](O)C2)cc1C(=O)N[C@H]1[C@@H](C(=O)Nc2ccc(F)c(C(F)(F)F)c2)[C@H]2CC[C@@H]1/C2=C\C(F)(F)F [Example 279, (1R,2S,3R,4R,7Z)-N-[4-fluoro-3-(trifluoromethyl)phenyl]-3-(2-methoxy-5-{[(1r,3s)-3-hydroxycyclobutyl]methyl}benzamido)-7-(2,2,2-trifluoroethylidene) bicyclo[2.2.1]heptane-2-carboxamide]
15 | 12.6 | COc1ccc(C(=O)N2CCC(S(C)(=O)=O)C2)cc1C(=O)N[C@H]1[C@@H](C(=O)Nc2ccc(F)c(C(F)(F)F)c2)[C@H]2CC[C@@H]1/C2=C\C1CC1 (stereo partly shown) [Example 256]
16 | 7.25 | COc1ccc([C@H]2C[C@H](O)C2)cc1C(=O)N[C@H]1[C@@H](C(=O)Nc2ccc(F)c(C(F)(F)F)c2)[C@H]2CC[C@@H]1/C2=C\C1CC1 [Example 277, (1R,2S,3R,4R,7Z)-7-(cyclopropylmethyl-idene)-N-[4-fluoro-3-(trifluoromethyl)phenyl]-3-{2-methoxy-5-[(1r,3r)-3-hydroxycyclobutyl]benzamido} bicyclo [2.2.1]heptane-2-carboxamide]
